Laboratory results reported in patent US20050009813A1 (priority 2001, published 2005).
Several values for one entry are separate records, joined by “and”; a condition that tells them apart may be missing. Identical values can stand only once. Counter-ions that a name gives are not always drawn.

How the values were obtained:
[1] = test system: behavioural despair (acquired immobility); experiment: Forced Swimming Test (Porsolt Swimming Test) on rats; type: in vivo, rat (Sprague Dawley); details: for Acquired Immobility (group mean value in minutes ± standard dev.): three administrations, 5 min test; for Acquired Immobility (group mean value in minutes ± standard dev.) / Change relative to control group (acquired immobility): rat, SD strain
Protocol: To verify whether this MAO-A-inhibitory action in vivo is relevant, deoxypeganine was tested in the “Forced Swimming Test” on rats (R. D. Porsolt et al., Nature 1977; 266(5604): 730-732). […] The time spent with attempts at escape until the animals fall into this psychomotorical inactivation (considered to be a surrogate for depression) is measured; prolonged activity corresponds to antidepressive action.
In the concrete case, […], about 6 weeks old (strain Sprague Dawley); acquired from Charles River UK Ltd.) were divided into 7 groups with 10 animals each. On the first day, after termination of the habituation phase, each animal was placed for 10 minutes in a cylindrical vessel filled about 15 cm high with 25°-warm water; this was followed, after one hour, 19 hours, and 23 hours, by three oral administrations of (depending on the group) either negative control (water), 15 mg/kg positive control (imipramine.HCl), or deoxypeganine.HCl in dosages of 1.0, 2.5, 7.5, 15.0 or 22.5 mg/kg of bodyweight. The volume, administered with the aid of a gastric tube, was in each case 5 ml/kg of bodyweight. One hour after the third of these treatments, each animal was again placed in the vessel for exactly 5 minutes and the time spent in minimal mobility was measured.

[2] = biological target: T1, Monoamino oxidase B (Rattus norvegicus, UniProt P19643); experiment: Inhibition of monoamino oxidase B
T1 sequence (P19643 1-520): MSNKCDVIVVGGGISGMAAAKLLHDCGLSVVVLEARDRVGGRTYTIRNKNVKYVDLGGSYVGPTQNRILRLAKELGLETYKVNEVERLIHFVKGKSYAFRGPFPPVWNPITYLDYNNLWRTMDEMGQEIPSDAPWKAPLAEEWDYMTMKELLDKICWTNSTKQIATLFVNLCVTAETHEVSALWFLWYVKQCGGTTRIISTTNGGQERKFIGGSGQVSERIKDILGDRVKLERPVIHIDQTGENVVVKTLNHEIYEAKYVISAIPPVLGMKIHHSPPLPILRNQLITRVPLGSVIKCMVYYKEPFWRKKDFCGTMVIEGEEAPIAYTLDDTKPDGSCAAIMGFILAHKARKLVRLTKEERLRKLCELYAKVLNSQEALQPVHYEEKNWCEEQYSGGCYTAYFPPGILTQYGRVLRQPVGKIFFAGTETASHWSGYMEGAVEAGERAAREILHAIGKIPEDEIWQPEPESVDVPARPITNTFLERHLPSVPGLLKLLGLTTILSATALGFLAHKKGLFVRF

[3] = test system: psychomotoric activation; experiment: Open Field Paradigma; type: in vivo, Sprague-Dawley rats; details: treatment for 2 weeks, daily doses of 2.5 to 22.5 mg/kg
From the text: Since such results can in principle also be obtained by psychomotorically activating substances which have no anti-depressive action, the effect of deoxypeganine was also examined, with the same dose range, in the so-called Open Field Paradigma. Here one makes use of the fact that it is stressful for rats to stay in an open, bright area, and therefore such situations are avoided by the rats if possible.

[4] = test system: cholinergic memory deficits; experiment: Compensation of cholinergic memory deficits in rats with partially destroyed central cholinergic pathways; type: in vivo
From the text: It can be inferred therefrom that the effect observable in the swimming test reaches its maximum at a fraction of the dose necessary for maximal activation of the cholinergic system, which according to the state of the art could not be reckoned with.

[5] = biological target: T2, monoamino oxidase A from rat brain (Rattus norvegicus, UniProt P21396); experiment: Inhibition of monoamino oxidase A from rat brain, [3H]serotonine substrate (Medvedev et al.); type: biochemical, rat (Wistar strain); details: rat brain MAO-A; 95 μM [3H]serotonine; 1% DMSO in 20 mM potassium dihydrogenphosphate buffer pH 7.4; 10 nM to 10 μM; read-out: semi-maximal inhibitory action (IC50), monoamino oxidase A
T2 sequence (P21396 1-526): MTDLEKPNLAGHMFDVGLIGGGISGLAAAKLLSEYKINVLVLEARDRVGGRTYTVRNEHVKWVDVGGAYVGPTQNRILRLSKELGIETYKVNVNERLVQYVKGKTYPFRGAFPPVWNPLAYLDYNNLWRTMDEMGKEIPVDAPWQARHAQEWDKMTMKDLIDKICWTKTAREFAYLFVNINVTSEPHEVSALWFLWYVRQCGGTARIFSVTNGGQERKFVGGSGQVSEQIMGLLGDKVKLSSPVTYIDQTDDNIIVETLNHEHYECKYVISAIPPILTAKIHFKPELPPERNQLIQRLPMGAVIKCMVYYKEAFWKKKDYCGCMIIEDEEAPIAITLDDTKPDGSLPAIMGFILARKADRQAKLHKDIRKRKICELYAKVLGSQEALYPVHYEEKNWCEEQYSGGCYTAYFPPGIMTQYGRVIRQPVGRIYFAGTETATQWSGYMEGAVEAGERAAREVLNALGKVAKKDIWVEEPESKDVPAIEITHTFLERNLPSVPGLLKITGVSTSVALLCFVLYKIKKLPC
Protocol: The inhibitory action of deoxypeganine in respect of monoamino oxidase A from rat brain (Wistar strain) was measured in the concentration range of from 10 nM to 10 μM according to the method described by Medvedev et al. (Biochem Pharmacol 1994; 47(2): 303-308) and compared with clorogyline as the positive control, whereby in both cases 95 μM [^3H]serotonine in a solution of 1% dimethylsulfoxide in 20 mM of potassium dihydrogenphosphate buffer pH 7.4 served as substrate.

In the case of Cl.c1ccc2c(c1)CN1CCCC1=N2 [deoxypeganine hydrochloride], the “Acquired Immobility (group mean value in minutes ± standard dev.)” value ([1]; 1.0 mg/kg p.o.) is reported as 3.46 ± 0.83 min, the “Change relative to control group (acquired immobility)” value (“Change relative to control group” below) ([1]; 1.0 mg/kg p.o.) is reported as “+0.3%” and the “Acquired Immobility (group mean value in minutes ± standard dev.)” value ([1]; 2.5 mg/kg p.o.) is reported as 2.80 ± 1.02 min. For the same compound, the “Change relative to control group” value ([1]; 2.5 mg/kg p.o.) was −18.8%, the “Change relative to control group” value ([1]; 7.5 mg/kg p.o., hydrochloride) was −47.2% and −41.4% and the “Change relative to control group” value ([1]; 15 mg/kg p.o.) was −44.1%. The “Change relative to control group” value ([1]; 22.5 mg/kg p.o.) was −43.8%.
In the case of CN(C)CCCN1c2ccccc2CCc2ccccc21 [imipramine HCl, reference compound], the “Change relative to control group” value ([1]; 15 mg/kg p.o., HCl) is reported as −56.5% and −58.9%.
With c1ccc2c(c1)CN1CCCC1=N2 [deoxypeganine, 1,2,3,9-tetrahydropyrrolo[2,1-b]quinazoline] the “inhibition of Type B enzyme (MAO-B), in words” value ([2]; in vitro) was “not significantly inhibited”, the inhibition at 10 µM ([2]; read-out: inhibition of monoamino oxidase B) was 15 to 20% and the “psychomotoric activation in open field, in words” value [3] was “no indication of psychomotoric activation”. The “compensation of cholinergic memory deficits, in words” value ([4]; 22.5 mg/kg oral) was “had not yet reached its maximum value”, the “compensation of cholinergic memory deficits, in words” value ([4]; oral dose of 7.5 mg/kg) was “not yet statistically significant” and the “effectiveness in forced swimming test, in words” value ([1]; 2.5 mg/kg) was “only partially effective”. For the same compound, the “effectiveness in forced swimming test, in words” value ([1]; dose of 1 mg/kg) was “not yet effective”, the “dose of maximal action in the Porsolt test” value ([1]; p.o., comparable to the antidepressant imipramine) was 7.5 mg/kg and the IC50 [5] was 1490 nM.
